How the values were obtained:
[1] = system: MOLT-4 acute lymphoblastic leukemia cells; assay: Cell viability, tetrazolium-based MTS assay, MOLT-4; conditions: Homo sapiens, MOLT-4, 48 h; read-out: Anti-Cancer Activity EC50 (48 hr), MOLT-4
Method: (§1) Acute lymphoblastic leukemia cells (MOLT-4 and RS4;11) were incubated with increasing concentrations of Bcl-xL/Bcl-2 degraders for 48 h. Cell viability was measured by tetrazolium-based MTS assay.

WI-38 NC = assay: Senolytic activity, cell viability (PrestoBlue HS), WI-38 NC; type: cell-based; conditions: Homo sapiens, 72 h
Method: (§2) WI-38 and HUVEC cells were incubated with increasing concentrations of degraders for 72 h. Cell viability was measured using PrestoBlue HS cell viability reagent.

[2] = system: RS4;11 acute lymphoblastic leukemia cells; assay: Cell viability, tetrazolium-based MTS assay, RS4;11; conditions: Homo sapiens, RS4;11, 48 h, read-out: Anti-Cancer Activity EC50 (48 hr), RS4
Method: as §1

[3] = system: WI-38 irradiation-induced senescent cells (IR-SC); assay: Senolytic activity, cell viability (PrestoBlue HS), WI-38 IR-SC; type: cell-based; conditions: Homo sapiens, 72 h
Method: To induce senescence in WI-38 and HUVEC, cells were subjected to x-ray irradiation at 20 Gray using X-RAD 320 biological irradiator. Following between 10 to 15 days after irradiation, senescence was induced in cells, and irradiation-induced senescent cells (IR-SC) were then used for cell viability and Western blotting tests.
as §2

SMILES | EC50 [1] [nM] | EC50 [2] [nM] | EC50 (WI-38 NC) [µM] | EC50 [3] [nM]
C[C@@]1(CN2CCN(C(=O)CCCN3CCC(CN4CCN(c5ccc6c(c5)CN(C5CCC(=O)NC5=O)C6=O)CC4)CC3)CC2)CCC(c2ccc(Cl)cc2)=C(CN2CCN(c3ccc(C(=O)NS(=O)(=O)c4ccc(N[C@H](CCN5CCCOCC5)CSc5ccccc5)c(S(=O)(=O)C(F)(F)F)c4)cc3)CC2)C1 (stereo partly drawn) [Compound 9, N-((4-(((R)-4-(1,4-oxazepan-4-yl)-1-(phenylthio)butan-2-yl)amino)-3-((trifluoromethyl)sulfonyl)phenyl)sulfonyl)-4-(4-(((4R)-4′-chloro-4-((4-(4-(4-((4-(2-(2,6-dioxopiperidin-3-yl)-1-oxoisoindolin-5-yl)piperazin-1-yl)methyl)piperidin-1-yl)butanoyl)piperazin-1-yl)methyl)-4-methyl-3,4,5,6-tetrahydro-[1,1′-biphenyl]-2-yl)methyl)piperazin-1-yl)benzamide] | < 1 | < 1 | > 10 | 10 to 100
CC1CN(c2ccc3c(c2)CN(C2CCC(=O)NC2=O)C3=O)CC(C)N1CC1CN(C[C@]2(C)CCC(c3ccc(Cl)cc3)=C(CN3CCN(c4ccc(C(=O)NS(=O)(=O)c5ccc(N[C@H](CCN6CCCOCC6)CSc6ccccc6)c(S(=O)(=O)C(F)(F)F)c5)cc4)CC3)C2)C1 (stereo partly drawn) [Compound 129, N-((4-(((R)-4-(1,4-oxazepan-4-yl)-1-(phenylthio)butan-2-yl)amino)-3-((trifluoromethyl)sulfonyl)phenyl)sulfonyl)-4-(4-(((4R)-4′-chloro-4-((3-((4-(2-(2,6-dioxopiperidin-3-yl)-1-oxoisoindolin-5-yl)-2,6-dimethylpiperazin-1-yl)methyl)azetidin-1-yl)methyl)-4-methyl-3,4,5,6-tetrahydro-[1,1′-biphenyl]-2-yl)methyl)piperazin-1-yl)benzamide] | < 1 | < 1 | > 10 | –
C[C@@]1(CN2CCC(CN3CC4CC3CN4c3ccc4c(c3)CN(C3CCC(=O)NC3=O)C4=O)CC2)CCC(c2ccc(Cl)cc2)=C(CN2CCN(c3ccc(C(=O)NS(=O)(=O)c4ccc(N[C@H](CCN5CCCOCC5)CSc5ccccc5)c(S(=O)(=O)C(F)(F)F)c4)cc3)CC2)C1 (stereo partly drawn) [Compound 130, N-((4-(((R)-4-(1,4-oxazepan-4-yl)-1-(phenylthio)butan-2-yl)amino)-3-((trifluoromethyl)sulfonyl)phenyl)sulfonyl)-4-(4-(((4R)-4′-chloro-4-((4-((5-(2-(2,6-dioxopiperidin-3-yl)-1-oxoisoindolin-5-yl)-2,5-diazabicyclo[2.2.1]heptan-2-yl)methyl)piperidin-1-yl)methyl)-4-methyl-3,4,5,6-tetrahydro-[1,1′-biphenyl]-2-yl)methyl)piperazin-1-yl)benzamide] | 1 to 10 | 1 to 10 | > 10 | –
C[C@@]1(CN2CC(CN3CC4CC3CN4c3ccc4c(c3)CN(C3CCC(=O)NC3=O)C4=O)C2)CCC(c2ccc(Cl)cc2)=C(CN2CCN(c3ccc(C(=O)NS(=O)(=O)c4ccc(N[C@H](CCN5CCCOCC5)CSc5ccccc5)c(S(=O)(=O)C(F)(F)F)c4)cc3)CC2)C1 (stereo partly drawn) [Compound 131, N-((4-(((R)-4-(1,4-oxazepan-4-yl)-1-(phenylthio)butan-2-yl)amino)-3-((trifluoromethyl)sulfonyl)phenyl)sulfonyl)-4-(4-(((4R)-4′-chloro-4-((3-((5-(2-(2,6-dioxopiperidin-3-yl)-1-oxoisoindolin-5-yl)-2,5-diazabicyclo[2.2.1]heptan-2-yl)methyl)azetidin-1-yl)methyl)-4-methyl-3,4,5,6-tetrahydro-[1,1′-biphenyl]-2-yl)methyl)piperazin-1-yl)benzamide] | 1 to 10 | 1 to 10 | > 10 | –
C[C@@]1(CN2CCC(C#Cc3ccc4c(c3)CN(C3CCC(=O)NC3=O)C4=O)CC2)CCC(c2ccc(Cl)cc2)=C(CN2CCN(c3ccc(C(=O)NS(=O)(=O)c4ccc(N[C@H](CCN5CCCOCC5)CSc5ccccc5)c(S(=O)(=O)C(F)(F)F)c4)cc3)CC2)C1 (stereo partly drawn) [Compound 132, N-((4-(((R)-4-(1,4-oxazepan-4-yl)-1-(phenylthio)butan-2-yl)amino)-3-((trifluoromethyl)sulfonyl)phenyl)sulfonyl)-4-(4-(((4R)-4′-chloro-4-((4-((2-(2,6-dioxopiperidin-3-yl)-1-oxoisoindolin-5-yl)ethynyl)piperidin-1-yl)methyl)-4-methyl-3,4,5,6-tetrahydro-[1,1′-biphenyl]-2-yl)methyl)piperazin-1-yl)benzamide] | < 1 | 1 to 10 | > 10 | –

Continued, in another order:

EC50 [1] [nM] | EC50 [2] [nM] | SMILES | EC50 (WI-38 NC) [µM] | EC50 [3] [nM]
< 1 | < 1 | C[C@@]1(CN2CCN(C(=O)CCCN3CCN(c4ccc5c(c4)CN(C4CCC(=O)NC4=O)C5=O)CC3)CC2)CCC(c2ccc(Cl)cc2)=C(CN2CCN(c3ccc(C(=O)NS(=O)(=O)c4ccc(N[C@H](CCN5CCCOCC5)CSc5ccccc5)c(S(=O)(=O)C(F)(F)F)c4)cc3)CC2)C1 (stereo partly drawn) [Compound 2, N-((4-(((R)-4-(1,4-oxazepan-4-yl)-1-(phenylthio)butan-2-yl)amino)-3-((trifluoromethyl)sulfonyl)phenyl)sulfonyl)-4-(4-(((4R)-4′-chloro-4-((4-(4-(4-(2-(2,6-dioxopiperidin-3-yl)-1-oxoisoindolin-5-yl)piperazin-1-yl)butanoyl)piperazin-1-yl)methyl)-4-methyl-3,4,5,6-tetrahydro-[1,1′-biphenyl]-2-yl)methyl)piperazin-1-yl)benzamide] | > 10 | 1 to 10
< 1 | < 1 | C[C@@]1(CN2CCN(C(=O)CN3CCC(C#Cc4ccc5c(c4)CN(C4CCC(=O)NC4=O)C5=O)CC3)CC2)CCC(c2ccc(Cl)cc2)=C(CN2CCN(c3ccc(C(=O)NS(=O)(=O)c4ccc(N[C@H](CCN5CCCOCC5)CSc5ccccc5)c(S(=O)(=O)C(F)(F)F)c4)cc3)CC2)C1 (stereo partly drawn) [Compound 5, N-((4-(((R)-4-(1,4-oxazepan-4-yl)-1-(phenylthio)butan-2-yl)amino)-3-((trifluoromethyl)sulfonyl)phenyl)sulfonyl)-4-(4-(((4R)-4′-chloro-4-((4-(2-(4-((2-(2,6-dioxopiperidin-3-yl)-1-oxoisoindolin-5-yl)ethynyl)piperidin-1-yl)acetyl)piperazin-1-yl)methyl)-4-methyl-3,4,5,6-tetrahydro-[1,1′-biphenyl]-2-yl)methyl)piperazin-1-yl)benzamide] | > 10 | 10 to 100
< 1 | < 1 | C[C@@]1(CN2CCN(C(=O)CN3CCN(CCCc4ccc5c(c4)CN(C4CCC(=O)NC4=O)C5=O)CC3)CC2)CCC(c2ccc(Cl)cc2)=C(CN2CCN(c3ccc(C(=O)NS(=O)(=O)c4ccc(N[C@H](CCN5CCCOCC5)CSc5ccccc5)c(S(=O)(=O)C(F)(F)F)c4)cc3)CC2)C1 (stereo partly drawn) [Compound 6, N-((4-(((R)-4-(1,4-oxazepan-4-yl)-1-(phenylthio)butan-2-yl)amino)-3-((trifluoromethyl)sulfonyl)phenyl)sulfonyl)-4-(4-(((4R)-4′-chloro-4-((4-(2-(4-(3-(2-(2,6-dioxopiperidin-3-yl)-1-oxoisoindolin-5-yl)propyl)piperazin-1-yl)acetyl)piperazin-1-yl)methyl)-4-methyl-3,4,5,6-tetrahydro-[1,1′-biphenyl]-2-yl)methyl)piperazin-1-yl)benzamide] | > 10 | 1 to 10
< 1 | < 1 | C[C@@]1(CN2CCN(C(=O)CN3CCC(CCc4ccc5c(c4)CN(C4CCC(=O)NC4=O)C5=O)CC3)CC2)CCC(c2ccc(Cl)cc2)=C(CN2CCN(c3ccc(C(=O)NS(=O)(=O)c4ccc(N[C@H](CCN5CCCOCC5)CSc5ccccc5)c(S(=O)(=O)C(F)(F)F)c4)cc3)CC2)C1 (stereo partly drawn) [Compound 7, N-((4-(((R)-4-(1,4-oxazepan-4-yl)-1-(phenylthio)butan-2-yl)amino)-3-((trifluoromethyl)sulfonyl)phenyl)sulfonyl)-4-(4-(((4R)-4′-chloro-4-((4-(2-(4-(2-(2-(2,6-dioxopiperidin-3-yl)-1-oxoisoindolin-5-yl)ethyl)piperidin-1-yl)acetyl)piperazin-1-yl)methyl)-4-methyl-3,4,5,6-tetrahydro-[1,1′-biphenyl]-2-yl)methyl)piperazin-1-yl)benzamide] | > 10 | 1 to 10
< 1 | < 1 | C[C@@]1(CN2CCN(C(=O)CN3CCC(CN4CCN(c5ccc6c(c5)CN(C5CCC(=O)NC5=O)C6=O)CC4)CC3)CC2)CCC(c2ccc(Cl)cc2)=C(CN2CCN(c3ccc(C(=O)NS(=O)(=O)c4ccc(N[C@H](CCN5CCCOCC5)CSc5ccccc5)c(S(=O)(=O)C(F)(F)F)c4)cc3)CC2)C1 (stereo partly drawn) [Compound 8, N-((4-(((R)-4-(1,4-oxazepan-4-yl)-1-(phenylthio)butan-2-yl)amino)-3-((trifluoromethyl)sulfonyl)phenyl)sulfonyl)-4-(4-(((4R)-4′-chloro-4-((4-(2-(4-((4-(2-(2,6-dioxopiperidin-3-yl)-1-oxoisoindolin-5-yl)piperazin-1-yl)methyl)piperidin-1-yl)acetyl)piperazin-1-yl)methyl)-4-methyl-3,4,5,6-tetrahydro-[1,1′-biphenyl]-2-yl)methyl)piperazin-1-yl)benzamide] | > 10 | 1 to 10

Source: patent US20260355323A1, “CEREBLON-RECRUITING BCL-XL/BCL-2 DUAL DEGRADERS” (University of Florida Research Foundation, Incorporated, priority 2022, published 2026)
